≈ marks a conversion by molar mass, not a printed value.
Legend:
[1] = MTT in vitro cytotoxicity assay, A875 cells; type: cell-based; conditions: A875 melanoma cells, A875 human melanoma cell line, triplicate, three independent experiments
Text: (§1) Pharmacological evaluation: All target carboxamide derivatives derived from natural arylsulfonamides 10a–r were screened for their potential in vitro cytotoxic effects on A875 (human melanoma), HepG2 (human hepatocellular liver carcinoma), and MARC145 (A subclone of African green monkey kidney cell line MA-104) cell lines using the standard MTT assay, with 5-FU (5-fluorouracil) as a positive control. The IC50 value represents the drug concentration required to inhibit cell growth by 50%.
(§2) Bioassays: The in vitro cytotoxicity of the novel carbazole derivatives against human melanoma (A875), human hepatocellular liver carcinoma (HepG2), and a subclone of African green monkey kidney cell line MA-104 (MARC145) cell lines was evaluated using the MTT assay. All data were analyzed with SPSS software, and the 50% inhibitory concentrations (IC50) of each compound for the different cell lines were determined. All assays were performed in triplicate on three independent experiments.

[2] = MTT in vitro cytotoxicity assay, HepG2 cells; type: cell-based, human; conditions: HepG2 hepatocellular liver carcinoma cells; HepG2 human hepatocellular liver carcinoma cell line; MTT assay; triplicate, three independent experiments
Text: as §1, §2

[3] = MTT in vitro cytotoxicity assay, MARC145 cells; type: cell-based, African green monkey; conditions: MARC145 kidney cells (subclone of MA-104); MARC145 African green monkey kidney cell line; MTT assay; triplicate, three independent experiments
Text: as §1, §2

[4] = system: HepG2 (human hepatocellular liver carcinoma) cell line; experiment: MTT in vitro cytotoxicity assay, HepG2 cells; type: cell-based; conditions: HepG2 cells; concentration 40 µg/mL; preliminary screening (Figure 4)
Text: as §1, §2

[5] = system: MARC145 (a subclone of African green monkey kidney cell line MA-104); experiment: MTT in vitro cytotoxicity assay, MARC145 cells; type: cell-based; conditions: MARC145 cells; concentration 40 µg/mL; preliminary screening (Figure 4)
Text: as §1, §2

O=c1[nH]cc(F)c(=O)[nH]1 [5-FU, 5-fluorouracil, reference compound] gave an IC50 [1] of 11.8 ± 2.03 µg/mL (≈ 90.4 µM), an IC50 [2] of 15.1 ± 1.06 µg/mL (≈ 116 µM) and an IC50 [3] of 13.1 ± 1.32 µg/mL (≈ 100 µM).
Compound O=C(Nc1ccc(S(=O)(=O)Nc2ccccc2-c2ccccc2)cc1)c1ccccc1C(F)(F)F [10a, N-(4-(N-([1,1′-Biphenyl]-2-yl)sulfamoyl)phenyl)-2-(trifluoromethyl)benzamide] has an IC50 [1] greater than 40 µg/mL, an IC50 [2] of 22.1 ± 3.99 µg/mL (≈ 44.4 µM) and an IC50 [3] of 13.2 ± 2.49 µg/mL (≈ 26.5 µM).
With O=C(Nc1ccc(S(=O)(=O)Nc2ccccc2Oc2ccccc2)cc1)c1ccccc1C(F)(F)F [10b, N-(4-(N-(2-Phenoxyphenyl)sulfamoyl)phenyl)-2-(trifluoromethyl)benzamide] the IC50 [1] was greater than 40 µg/mL, the IC50 [2] was greater than 40 µg/mL and the IC50 [3] was greater than 40 µg/mL.
For Cc1onc(NS(=O)(=O)c2ccc(NC(=O)c3ccccc3C(F)(F)F)cc2)c1C [10c, N-(4-(N-(4,5-Dimethylisoxazol-3-yl)sulfamoyl)phenyl)-2-(trifluoromethyl)benzamide], the IC50 [1] was greater than 40 µg/mL, the IC50 [2] was greater than 40 µg/mL and the IC50 [3] was greater than 40 µg/mL. It also gave a melting point of 183 to 184 °C.
Work on O=C(Nc1ccc(S(=O)(=O)Nc2ccccc2C(F)(F)F)cc1)c1ccccc1C(F)(F)F [10d, 2-(Trifluoromethyl)-N-(4-(N-(2-(trifluoromethyl)phenyl)sulfamoyl)phenyl)benzamide] yielded an IC50 [1] greater than 40 µg/mL, an IC50 [2] of 33.1 ± 2.13 µg/mL (≈ 67.7 µM) and an IC50 [3] of 24.9 ± 4.45 µg/mL (≈ 51 µM).
For O=C(Nc1ccc(S(=O)(=O)Nc2ccccc2-c2ccccc2)cc1)c1cc(Br)nn1-c1ncccc1Cl [10e, N-(4-(N-([1,1′-Biphenyl]-2-yl)sulfamoyl)phenyl)-3-bromo-1-(3-chloropyridin-2-yl)-1H-pyrazole-5-carboxamide], the IC50 [1] was greater than 40 µg/mL, the IC50 [2] was greater than 40 µg/mL and the IC50 [3] was greater than 40 µg/mL. It also gave a melting point of 156 to 157 °C.
Compound O=C(Nc1ccc(S(=O)(=O)Nc2ccccc2Oc2ccccc2)cc1)c1cc(Br)nn1-c1ncccc1Cl [10f, 3-Bromo-1-(3-chloropyridin-2-yl)-N-(4-(N-(2-phenoxyphenyl)sulfamoyl)phenyl)-1H-pyrazole-5-carboxamide] has an IC50 [1] greater than 40 µg/mL, an IC50 [2] greater than 40 µg/mL and an IC50 [3] of 11.8 ± 2.93 µg/mL (≈ 18.9 µM). For the same compound, the melting point was 177 to 178 °C.
Work on Cc1onc(NS(=O)(=O)c2ccc(NC(=O)c3cc(Br)nn3-c3ncccc3Cl)cc2)c1C [10g, 3-Bromo-1-(3-chloropyridin-2-yl)-N-(4-(N-(4,5-dimethylisoxazol-3-yl)sulfamoyl)phenyl)-1H-pyrazole-5-carboxmide] yielded an IC50 [1] greater than 40 µg/mL, an IC50 [2] greater than 40 µg/mL and an IC50 [3] greater than 40 µg/mL. For the same compound, the melting point was 171 to 172 °C.
Work on O=C(Nc1ccc(S(=O)(=O)Nc2ccccc2C(F)(F)F)cc1)c1cc(Br)nn1-c1ncccc1Cl [10h, 3-Bromo-1-(3-chloropyridin-2-yl)-N-(4-(N-(2-(trifluoromethyl)phenyl)sulfamoyl)phenyl)-1H-pyrazole-5-carboxamide] yielded an IC50 [1] of 16.8 ± 1.14 µg/mL (≈ 27.9 µM), an IC50 [2] of 14.4 ± 1.89 µg/mL (≈ 23.9 µM) and an IC50 [3] of 6.75 ± 0.89 µg/mL (≈ 11.2 µM). For the same compound, the melting point was 181 to 182 °C.
Cc1c(C(=O)Nc2ccc(S(=O)(=O)Nc3ccccc3-c3ccccc3)cc2)cccc1-c1ccccc1 [10i, N-(4-(N-([1,1′-Biphenyl]-2-yl)sulfamoyl)phenyl)-2-methyl-[1,1′-biphenyl]-3-carboxamide] gave an IC50 [1] greater than 40 µg/mL, an IC50 [2] greater than 40 µg/mL and an IC50 [3] greater than 40 µg/mL.
Work on Cc1c(C(=O)Nc2ccc(S(=O)(=O)Nc3ccccc3Oc3ccccc3)cc2)cccc1-c1ccccc1 [10j, 2-Methyl-N-(4-(N-(2-phenoxyphenyl)sulfamoyl)phenyl)-[1,1′-biphenyl]-3-carboxamide] yielded an IC50 [1] greater than 40 µg/mL, an IC50 [2] greater than 40 µg/mL and an IC50 [3] greater than 40 µg/mL.
Compound Cc1onc(NS(=O)(=O)c2ccc(NC(=O)c3cccc(-c4ccccc4)c3C)cc2)c1C [10k, N-(4-(N-(4,5-Dimethylisoxazol-3-yl)sulfamoyl)phenyl)-2-methyl-[1,1′-biphenyl]-3-carboxamide] has an IC50 [1] greater than 40 µg/mL, an IC50 [2] of 34.7 ± 2.94 µg/mL (≈ 75.2 µM) and an IC50 [3] greater than 40 µg/mL. The melting point was 156 to 157 °C.
In the case of Cc1c(C(=O)Nc2ccc(S(=O)(=O)Nc3ccccc3C(F)(F)F)cc2)cccc1-c1ccccc1 [10l, 2-Methyl-N-(4-(N-(2-(trifluoromethyl)phenyl)sulfamoyl)phenyl)-[1,1′-biphenyl]-3-carboxamide], the IC50 [1] is reported as 10.8 ± 2.28 µg/mL (≈ 21.1 µM), the IC50 [2] is reported as 9.03 ± 1.49 µg/mL (≈ 17.7 µM) and the “Inhibitory activity at 40 µg/mL compared with control 5-FU” value [4] is reported as “significantly higher activities compared with the control”. The IC50 [3] was 5.62 ± 0.98 µg/mL (≈ 11 µM) and the “Inhibitory activity at 40 µg/mL compared with control 5-FU” value [5] was “significantly higher activities compared with the control”.
O=C(Nc1ccc(S(=O)(=O)Nc2ccccc2-c2ccccc2)cc1)c1ccccc1-c1ccc(C(F)(F)F)cc1 [10m, N-(4-(N-([1,1′-Biphenyl]-2-yl)sulfamoyl)phenyl)-4′-(trifluoromethyl)-[1,1′-biphenyl]-2-carboxamide] showed an IC50 [1] greater than 40 µg/mL, an IC50 [2] greater than 40 µg/mL and an IC50 [3] greater than 40 µg/mL. The melting point was 163 to 164 °C.
Compound O=C(Nc1ccc(S(=O)(=O)Nc2ccccc2Oc2ccccc2)cc1)c1ccccc1-c1ccc(C(F)(F)F)cc1 [10n, N-(4-(N-(2-Phenoxyphenyl)sulfamoyl)phenyl)-4′-(trifluoromethyl)-[1,1′-biphenyl]-2-carboxamide] has an IC50 [1] greater than 40 µg/mL, an IC50 [2] greater than 40 µg/mL and an IC50 [3] of 22.6 ± 2.78 µg/mL (≈ 38.3 µM). For the same compound, the melting point was 173 to 174 °C.
With Cc1onc(NS(=O)(=O)c2ccc(NC(=O)c3ccccc3-c3ccc(C(F)(F)F)cc3)cc2)c1C [10o, N-(4-(N-(4,5-Dimethylisoxazol-3-yl)sulfamoyl)phenyl)-4′-(trifluoromethyl)-[1,1′-biphenyl]-2-carboxamide] the IC50 [1] was greater than 40 µg/mL, the IC50 [2] was greater than 40 µg/mL and the IC50 [3] was greater than 40 µg/mL. For the same compound, the melting point was 199 to 200 °C.
In the case of O=C(Nc1ccc(S(=O)(=O)Nc2ccccc2C(F)(F)F)cc1)c1ccccc1-c1ccc(C(F)(F)F)cc1 [10p, 4′-(Trifluoromethyl)-N-(4-(N-(2-(trifluoromethyl)phenyl)sulfamoyl)phenyl)-[1,1′-biphenyl]-2-carboxamide], the IC50 [1] is reported as 20.4 ± 3.99 µg/mL (≈ 36.2 µM), the IC50 [2] is reported as 9.6 ± 0.88 µg/mL (≈ 17 µM) and the “Inhibitory activity at 40 µg/mL compared with control 5-FU” value [4] is reported as “significantly higher activities compared with the control”. The IC50 [3] was 8.5 ± 2.55 µg/mL (≈ 15.1 µM) and the “Inhibitory activity at 40 µg/mL compared with control 5-FU” value [5] was “significantly higher activities compared with the control”.
With CC(C(=O)Nc1ccc(S(=O)(=O)Nc2ccccc2C(F)(F)F)cc1)c1ccc2c(c1)[nH]c1ccc(Cl)cc12 (stereo not drawn) [10q, 2-(6-Chloro-9H-carbazol-2-yl)-N-(4-(N-(2-(trifluoromethyl)phenyl)sulfamoyl)phenyl)propanamide] the IC50 [1] was 4.19 ± 0.78 µg/mL (≈ 7.33 µM), the IC50 [2] was 3.55 ± 0.63 µg/mL (≈ 6.21 µM) and the “Inhibitory activity at 40 µg/mL compared with control 5-FU” value [4] was “significantly higher activities compared with the control”. For the same compound, the IC50 [3] was 2.95 ± 0.78 µg/mL (≈ 5.16 µM), the “Inhibitory activity at 40 µg/mL compared with control 5-FU” value [5] was “significantly higher activities compared with the control” and the melting point was 159 to 160 °C.
For CC(C(=O)Nc1ccc(S(=O)(=O)Nc2ccccc2Oc2ccccc2)cc1)c1ccc2c(c1)[nH]c1ccc(Cl)cc12 (stereo not drawn) [10r, 2-(6-Chloro-9H-carbazol-2-yl)-N-(4-(N-(2-phenoxyphenyl)sulfamoyl)phenyl)propanamide], the IC50 [1] was 15.2 ± 2.4 µg/mL (≈ 25.4 µM), the IC50 [2] was 8.84 ± 1.68 µg/mL (≈ 14.8 µM) and the “Inhibitory activity at 40 µg/mL compared with control 5-FU” value [4] was “significantly higher activities compared with the control”. For the same compound, the IC50 [3] was 5.96 ± 1.33 µg/mL (≈ 10 µM), the “Inhibitory activity at 40 µg/mL compared with control 5-FU” value [5] was “significantly higher activities compared with the control” and the melting point was 166 to 167 °C.
In the case of O=C(O)c1ccccc1NS(=O)(=O)c1ccc(-c2ccccc2)cc1 [NC1, 2-([1,1′-Biphenyl]-4-sulfonamido)benzoic acid], the IC50 [1] is reported as 27.2 ± 5.39 µg/mL (≈ 76.9 µM), the IC50 [3] is reported as 25.8 ± 10.4 µg/mL (≈ 73 µM) and the melting point is reported as 205 to 207 °C.
For COC(=O)c1ccccc1NC(=O)c1ccccc1NS(=O)(=O)c1ccc(-c2ccccc2)cc1 [NC2, Methyl 2-(2-([1,1′-biphenyl]-4-sulfonamido)benzamido)benzoate], the IC50 [1] was greater than 40 µg/mL and the IC50 [3] was greater than 40 µg/mL.
